Test results from US20260216115A1, “TRETINOIN-CONTAINING COMPOSITION, PREPARATION METHOD AND USE THEREOF” (NANJING INDETEK LABORATORY CO., LTD., priority 2022, published 2026).

Tests used:
[1] = Complex formation at different molar ratios, state at room temperature; assay type: physicochemical
Protocol: Referring to the preparation process in 1.2.1, complexes were prepared using tretinoin and diethanolamine at different ratios (as shown in the table below).
Referring to the preparation process in 1.2 in Example 1, diethanolamine was replaced with triethanolamine, and complexes were prepared using tretinoin and triethanolamine at different ratios (as shown in the table below).

[2] = Water solubility/water dilution stability of tretinoin complexes; assay type: physicochemical; details: water added until the solution appeared turbid
Protocol: Weighing was performed, and calculation was performed to obtain the limiting water content of the complexes.

[3] = Dynamic moisture sorption (DVS) with PLM before and after; assay type: physicochemical
[4] = Differential scanning calorimetry (DSC, mDSC); assay type: physicochemical
[5] = Anti-solvent addition test; assay type: physicochemical; details: room temperature, about 4 days
Protocol: The corresponding volume of good solvent was added to an appropriate amount of 2 [DEA][RA] to obtain a clear solution. If there were two corresponding anti-solvents, the clear solution was divided into two parts. At room temperature (about 22° C.), the anti-solvent was slowly added to the clear solution with stirring until solid precipitation was observed (the maximum volume of anti-solvent added was 1.5 mL). If the solid precipitation was observed, the addition of anti-solvent was stopped. After about 4 days of stirring at room temperature, a clear solution was obtained or oiling-out phenomenon was observed, without solid form substance obtained.

[6] = Solubility of the complex in different medium systems (oily mediums); assay type: physicochemical
Text: 6.1 Study on Solubility of the Tretinoin-Alcoholamine Compound Complex in Different Medium Systems

[7] = Liquid nitrogen freezing test; assay type: physicochemical; details: frozen about 1 min in liquid nitrogen, rewarmed to room temperature (about 22° C.)
Protocol: After freezing for about 1 min, the sample was taken out, yielding a reddish-brown transparent solid (hard and brittle). […] The experimental process was as follows: freezing with the spoon, fragmenting, and then melting

[8] = Compatibility of gel matrix and complex; assay type: physicochemical; details: 0.17% (0.1% in terms of RA) added to the Carbopol 980 gel matrix
[9] = Crystallization induction: cooling test; assay type: physicochemical; details: 3 days
Protocol: About 40 mg of 2 [DEA][RA] was dissolved in the respective solvent at 50° C., a clear solution was obtained and divided equally in 2 groups. After cooling according to the respective procedure, and equilibrating at low temperature for 3 days, no solid form substance was obtained.

[10] = 2020 edition of Chinese Pharmacopoeia (Part II); cited from earlier work
[11] = tretinoin-diethanolamine complexes, molar ratio [DEA]:[RA] 2:1 to 10:1
[12] = tretinoin-triethanolamine complexes, molar ratio TEA:RA 7:1 to 10:1

CC1=C(/C=C/C(C)=C/C=C/C(C)=C/C(=O)O)C(C)(C)CCC1.CC1=C(/C=C/C(C)=C/C=C/C(C)=C/C(=O)O)C(C)(C)CCC1.OCCNCCO.OCCNCCO.OCCNCCO.OCCNCCO.OCCNCCO [2.5[DEA][RA]]
State at room temperature [1, 11]: Reddish-brown clear liquid
Maximum water content (water dilution stability) [2]: 92.5%

CC1=C(/C=C/C(C)=C/C=C/C(C)=C/C(=O)O)C(C)(C)CCC1.OCCNCCO.OCCNCCO [2[DEA][RA]]
State at room temperature [1, 11]: Reddish-brown clear liquid
Maximum water content (water dilution stability) [2]: 91.4%
Hygroscopicity (DVS) ([3]; 25° C., 0% RH-95% RH-0% RH): certain hygroscopic properties
Crystalline particles by PLM before and after DVS ([3]; room temperature): no crystalline particles
mDSC glass transition temperature ([4]; −25° C. to 25° C.): no glass transition temperature is observed
DSC exothermic or endothermic signals ([4]; −25° C. to 40° C.): no exothermic or endothermic signals
Anti-solvent addition test results ([5]; test-A, good solvent DMSO, anti-solvent ACN 1.5 mL): Clear
Anti-solvent addition test results ([5]; test-B1, good solvent n-propanol, anti-solvent ACN 1.5 mL): Clear
Anti-solvent addition test results ([5]; test-B2, good solvent n-propanol, anti-solvent n-heptane 1.5 mL): Clear
Anti-solvent addition test results ([5]; test-D1, good solvent THF, anti-solvent ACN 1.5 mL): Clear
Anti-solvent addition test results ([5]; test-E1, good solvent IPA, anti-solvent ACN 1.5 mL): Clear
Solubility in oily medium ([6]; Isopropyl myristate): Insoluble
Solubility in oily medium ([6]; Laurocapram): Insoluble
Solubility in oily medium ([6]; Medium-chain triglyceride): Insoluble
Solubility in oily medium ([6]; Soybean oil): Insoluble
Liquid nitrogen freezing test result upon rewarming [7]: the sample melted immediately
Compatibility of complex with gel matrix [8]: precipitation of yellow solids
Cooling test results ([9]; test-A1, n-propanol, 50° C.→5° C.): Clear
Cooling test results ([9]; test-A2, n-propanol, 50° C.→−20° C.): Clear
Cooling test results ([9]; test-C1, 1,4-dioxane, 50° C.→5° C.): Clear
Cooling test results ([9]; test-C2, 1,4-dioxane, 50° C.→−20° C., *melting immediately upon taking out): Frozen, yellow opaque*
Cooling test results ([9]; test-D1, DMSO, 50° C.→5° C.): Clear

CC1=C(/C=C/C(C)=C/C=C/C(C)=C/C(=O)O)C(C)(C)CCC1.OCCNCCO.OCCNCCO.OCCNCCO [3[DEA][RA]]
State at room temperature [1, 11]: Reddish-brown clear liquid
Maximum water content (water dilution stability) [2]: 93.7%

CC1=C(/C=C/C(C)=C/C=C/C(C)=C/C(=O)O)C(C)(C)CCC1.OCCNCCO.OCCNCCO.OCCNCCO.OCCNCCO [4[DEA][RA]]
State at room temperature [1, 11]: Reddish-brown clear liquid
Maximum water content (water dilution stability) [2]: 94.1%

CC1=C(/C=C/C(C)=C/C=C/C(C)=C/C(=O)O)C(C)(C)CCC1.OCCNCCO.OCCNCCO.OCCNCCO.OCCNCCO.OCCNCCO [5[DEA][RA]]
State at room temperature [1, 11]: Reddish-brown clear liquid

CC1=C(/C=C/C(C)=C/C=C/C(C)=C/C(=O)O)C(C)(C)CCC1.OCCNCCO.OCCNCCO.OCCNCCO.OCCNCCO.OCCNCCO.OCCNCCO [6[DEA][RA]]
State at room temperature [1, 11]: Reddish-brown clear liquid

CC1=C(/C=C/C(C)=C/C=C/C(C)=C/C(=O)O)C(C)(C)CCC1.OCCNCCO.OCCNCCO.OCCNCCO.OCCNCCO.OCCNCCO.OCCNCCO.OCCNCCO [7[DEA][RA]]
State at room temperature [1, 11]: Reddish-brown clear liquid

CC1=C(/C=C/C(C)=C/C=C/C(C)=C/C(=O)O)C(C)(C)CCC1.OCCNCCO.OCCNCCO.OCCNCCO.OCCNCCO.OCCNCCO.OCCNCCO.OCCNCCO.OCCNCCO [8[DEA][RA]]
State at room temperature [1, 11]: Reddish-brown clear liquid

CC1=C(/C=C/C(C)=C/C=C/C(C)=C/C(=O)O)C(C)(C)CCC1.OCCN(CCO)CCO.OCCN(CCO)CCO.OCCN(CCO)CCO.OCCN(CCO)CCO.OCCN(CCO)CCO.OCCN(CCO)CCO.OCCN(CCO)CCO.OCCN(CCO)CCO [8[TEA][RA]]
State at room temperature [1, 12]: Reddish-brown clear liquid
State at room temperature ([1]; tretinoin-triethanolamine complexes, molar ratio TEA:RA 7:1 to 10:1, listed as 8 [TEA][RA]): reddish-brown transparent liquid

CC1=C(/C=C/C(C)=C/C=C/C(C)=C/C(=O)O)C(C)(C)CCC1.OCCNCCO.OCCNCCO.OCCNCCO.OCCNCCO.OCCNCCO.OCCNCCO.OCCNCCO.OCCNCCO.OCCNCCO [9[DEA][RA]]
State at room temperature [1, 11]: Reddish-brown clear liquid

CC1=C(/C=C/C(C)=C/C=C/C(C)=C/C(=O)O)C(C)(C)CCC1.OCCN(CCO)CCO.OCCN(CCO)CCO.OCCN(CCO)CCO.OCCN(CCO)CCO.OCCN(CCO)CCO.OCCN(CCO)CCO.OCCN(CCO)CCO.OCCN(CCO)CCO.OCCN(CCO)CCO [9[TEA][RA]]
State at room temperature [1, 12]: Reddish-brown clear liquid

CC1=C(/C=C/C(C)=C/C=C/C(C)=C/C(=O)O)C(C)(C)CCC1.OCCNCCO.OCCNCCO.OCCNCCO.OCCNCCO.OCCNCCO.OCCNCCO.OCCNCCO.OCCNCCO.OCCNCCO.OCCNCCO [10[DEA][RA]]
State at room temperature [1, 11]: Reddish-brown clear liquid

CC1=C(/C=C/C(C)=C/C=C/C(C)=C/C(=O)O)C(C)(C)CCC1.OCCN(CCO)CCO.OCCN(CCO)CCO.OCCN(CCO)CCO.OCCN(CCO)CCO.OCCN(CCO)CCO.OCCN(CCO)CCO.OCCN(CCO)CCO.OCCN(CCO)CCO.OCCN(CCO)CCO.OCCN(CCO)CCO [10[TEA][RA]]
State at room temperature [1, 12]: Reddish-brown clear liquid

CC1=C(/C=C/C(C)=C/C=C/C(C)=C/C(=O)O)C(C)(C)CCC1 [tretinoin]
Solubility in water [10]: extremely insoluble in water
